Assay results reported in ChEMBL document CHEMBL3994670, “Therapeutic Advantage of the Positive Allosteric Modulators of the GABA-B Receptor” (ACS Med Chem Lett, 2017).

assay: Positive allosteric modulation of GABA-B receptor in rat brain cortex membranes assessed as increase in GABA-induced [35S]GTPgammaS binding after 60 mins by liquid scintillation counting method; assay type: cell membranes

Point of comparison: `Cc1noc2c(-c3cncc(F)c3)nn(C(C)c3ccc(Cl)cc3)c(=O)c12` (stereo unspecified), EC50 2690 nM. Against it:
- CNC(=O)c1ccc(OC)c(-c2nn([C@@H](C)c3ccc(Cl)cc3)c(=O)c3c(C)noc23)c1 — 120-fold lower, 23 nM
- COc1ccc(NC(C)=O)cc1-c1nn([C@@H](C)c2ccc(Cl)cc2)c(=O)c2c(C3CC3)noc12 — 53-fold lower, 51 nM
- CC(=O)Nc1cccc(-c2nn(Cc3ccc(Cl)cc3)c(=O)c3c(C(C)C)noc23)c1 — within 1.5-fold, 2590 nM
- COc1ccc(NC(C)=O)cc1-c1nn([C@@H](C)c2ccc(Cl)cc2)c(=O)c2c(C)noc12 — 63-fold lower, 43 nM
- COc1ccc(C(N)=O)cc1-c1nn(C(C)c2ccc(Cl)cc2)c(=O)c2c(C)noc12 (stereo unspecified) — 160-fold lower, 17 nM
